Reference: patent publication US7169604B1, “Method for PR-39 peptide mediated selective inhibition of IκBα degradation” (Beth Israel Deaconess Medical Center, priority 1998, dated 2007)
Ends that are not written are not given here.

How the values were obtained:
[1] = tested on: IκBα; test: Reversibility of inhibition of IκBα degradation after washout in U937 cells; assay type: cell-based, human; conditions: 100 nM for 45 min, washed, 45 min later TNF-α 1 ng/ml, 10 min
Method: In parallel cells were exposed to MG132, a rapidly reversible competitive inhibitor of the proteasome or with lactacystin which covalently and irreversibly modifies the active site threonine residues. The results are shown by FIG. 1F.
U937 cells were pretreated with 100 nM of PR-39, 10 μM of either MG132 or lactacystin (LC) or buffer (Control) for 45 min. These cells were then extensively washed with fresh medium. 45 min later TNF-α (1 ng/ml) was added to medium, and the extent of IκBα degradation was determined 10 min later by Western blotting.

[2] = tested on: NFκB; test: NFκB-dependent luciferase reporter (pNFκB-Luc) in ECV304 cells; assay type: cell-based, human; conditions: 45 min pretreatment with 10 nM, TNF-α 1 ng/ml
Method: The results are presented by FIG. 2A.
The effect of PR-39-mediated inhibition of IκBα degradation on NFκB-dependent transcription was tested in ECV304 cells transiently transfected with pNFκB-Luc reporter vector.

[3] = tested on: ICAM-1 and VCAM-1; test: ICAM-1 and VCAM-1 expression in mouse infarct model; assay type: in vivo; conditions: transgenic αMHC-PR-39 mice vs control mice, coronary artery ligation, 1, 3 or 7 days
Description: NFκB-dependent transcription is also activated following induction of ischemia in the heart, leading to increased expression of several adhesion molecules, including ICAM-1 and VCAM-1. To test the effect of PR-39 peptide on NFκB-dependent gene expression in this model, we assessed VCAM-1 and ICAM-1 protein levels following induction of myocardial infarction in transgenic mice expressing PR-39 cDNA in cardiac myocytes (αMHC-PR-39) and age-matched control mice. The result is given by FIG. 2D.
Transgenic mice stably expressing PR-39 in cardiac myocytes (αMHC-PR-39 mice) or litter mate controls (control mice) were subjected to acute coronary artery ligation as described (30) and randomized to intraperitoneal implantation of Alzet minipumps (Alza Corp, Palo Alto, Calif.) delivering 1 μg/kg/24 hr of PR-39 or buffer. Myocardial tissues collected 1, 3 or 7 days later were subjected to Western blot analysis for ICAM-1 and VCAM-1 gene expression that were normalized to expression levels prior to induction of infarction. Note the rapid increase in both ICAM-1 and VCAM-1 expression in control but not αMHC-PR-39 mice.
In contrast, induction of myocardial infarction had no effect on either ICAA-1 or VCAM-1 protein levels in αMHC-PR-39 mice.

[4] = tested on: IκBα; test: IκBα ubiquitination in HA-Ub expressing ECV304 cells; assay type: cell-based, human; conditions: 10 μM pretreatment, TNF-α 1 ng/ml
Method: ECV304 cells were stably transfected with a HA-tagged ubiquitin plasmid MT123 (kind gift of Dr. G. Walz, BIDMC). The clone with the highest expression of HA-ubiquitin was treated with 10 μM PR39 for 45 min followed by treatment with 1 ng/ml TNFα for 20 min. At that point, the cells were washed and lysed and IκBα was immunoprecipitated. Following SDS-PAGE and membrane transfer of the immunoprecipitated material, the HA-ubiquitinated IκBα was visualized by Western blotting with an anti-HA antibody (Santa Cruz).
To assess the effect of PR-39 peptide treatment on IκBα ubiquitination in intact cells, a stable ECV304-derived cell line expressing HA-tagged ubiquitin was generated. […] HA-Ub expressing ECV304 cells were exposed to 1 ng/ml TNF-α in the presence (+) or absence (−) of 10 μM PR-39 pretreatment. 45 min later the cells were lysed and subjected to IκBα immunoprecipitation followed by Western blotting of the pellet material with anti-HA antibody. Note the presence of multiple ubiquitinated IκBα intermediaries in PR-39 peptide treated cells but not in control cells.

RRRPRPPYLPRPRPPPFFPPRLPPRIPPGFPPRFPPRFP [PR-39]
extent of IκBα degradation after washout [1]: complete disappearance of IκBα protein
TNF-α induced increase in luciferase activity [2]: completely blocked
NFκB-dependent gene expression (ICAM-1 and VCAM-1 protein levels) [3]: blocks NFκB-dependent gene expression
ubiquitinated IκBα in cells [4]: accumulation of more ubiquitinated IκBα complexes
